The record followed here is patent US20250059166A1, “PIPERIDINYLPYRIDINYLCARBONITRILE DERIVATIVES AS INHIBITORS OF GLUTAMINYL-PEPTIDE CYCLOTRANSFERASE AND GLUTAMINYL-PEPTIDE CYCLOTRANSFERASE LIKE PROTEIN” (Boehringer Ingelheim International GmbH, priority 2023, published 2025).

Usually IC50 stands for the concentration that gives 50% inhibition. What is called efflux ratio is the permeability from basolateral to apical divided by that in the opposite direction, in the common usage. What is called Papp A→B is the apparent permeability from the apical to the basolateral side of a cell layer. Lower therefore signals slow passage.

Data set [1] concerns the target T1, QPCTL (Homo sapiens, UniProt Q9NXS2).
T1 construct: made in house
Briefly: Assay A: biochemical QPCTL activity assay (MALDI-TOF MS, CD47 peptide substrate). To be noted: compounds of the invention; 0.5 nM enzyme, 10 μM CD47 peptide substrate; read-out: Inhibition of QPCTL: IC50. How it is done: (§1) QPCT or QPCTL dependent conversion of N-terminal glutamine to pyroglutamate of CD47 was monitored via MALDI-TOF MS. Test compounds were dissolved in 100% DMSO and serially diluted into clear 1,536-well microtiter plates. Enzymatic reactions were set up in assay buffer containing 20 mM Tris pH 7.5, 0.1 mM TCEP, 0.01% BSA, and 0.001% Tween20. […] The plates were incubated for 10 min in a humidified incubator at 24° C. Subsequently, 2.5 μL of CD47 peptide substrate surrogate (^19[…]^33) was added to each well (final concentration: 10 μM for QPCTL/20 μM for QPCT). The plates were mixed for 30 sec at 1,000 rpm and subsequently incubated for 40 min in a humidified incubator at 24° C. […] The plates were sealed with an adhesive foil, mixed for 30 s at 1,000 rpm and stored at room temperature until preparation of the MALDI target plates. […] QPCT or QPCTL activity was monitored by calculating the ratio between product and internal standard signals followed by normalization to high (100% activity) and low (0% activity) controls. Determination of compound potencies was obtained by fitting the dose-response data to a four-parameter logistical equation.

The test system of data set [2] is SIRPα signalling induced by A549 cells. The experiment in a line: Assay B: SIRPα signalling assay using A549 cells. The format is cell-based. The settings on record: Homo sapiens; compounds of the invention; A549 cells 48 h, Jurkat PathHunter SIRPαV1 reporter cells 5 h; read-out: Inhibition of SIRPα signalling induced by A549 cells: IC50. How it is done:
(§2) Two cell types are independently used: the Raji cell line (lymphoblast-like human cell line derived from B lymphocytes from a Burkitt's lymphoma patient in 1963) and A549 cells (adenocarcinoma human alveolar basal epithelial cells).
(§3) Test compounds were dissolved in 100% DMSO and serially diluted into a white 384-well microtiter cell culture plate (PerkinElmer #60076780 in case of Raji assay; PDL-coated plates Greiner #781945 in case of A549 assay). 5000 Raji cells (ATCC #CC86) or 5000 A549 cells (ATCC #CCL-185) in Assay Complete Cell Plating reagent 30 (DiscoverX 93-0563R30B) were added per well. The assay plate was incubated for 48 h at 37° C., 95% humidity and 5% CO2. 15000 reporter cells (Jurkat PathHunter SIRPαV1, DiscoverX #93-1135C19) were added to each well, and the plate was incubated for 5 h at 37° C., 95% humidity and 5% CO2. Bioassay reagent 1 of the PathHunter Bioassay detection kit (DiscoverX 93-0001) was added to each well of the plate using a multichannel pipette followed by a 15 min incubation at room temperature. Afterwards bioassay reagent 2 was added followed by 60 min incubation at room temperature (incubation in the dark).
(§4) The analysis of the data was performed using the luminescence signal generated by beta-galactosidase in the PathHunter reporter cell line. The luminescence measurement was done using a Pherastar Multi-Mode Reader. Dose-response curves & IC50 data were calculated with 4-parameter sigmoidal dose response formula.

Data set [3] has as its target T2, QPCT (Homo sapiens, UniProt Q16769).
T2 construct: purchased Origine (so in the source)
Briefly: Assay A: biochemical QPCT activity assay (MALDI-TOF MS, CD47 peptide substrate). To be noted: compounds of the invention; 0.5 nM enzyme, 20 μM CD47 peptide substrate; read-out: Inhibition of QPCT: IC50. How it is done: as §1

Data set [4] can be described thus: Assay C: permeability in CACO-2 cells. The settings on record: human, pH 7.2, compounds of the invention; for efflux ratio at 2 h: Caco-2, permeability B-A / permeability A-B; for Papp A→B at 2 h: Caco-2, apical to basolateral. Format: in vitro ADME. How it is done:
Caco-2 cells (1-2×10^5 cells/1 cm^2 area) are seeded on filter inserts (Costar transwell polycarbonate or PET filters, 0.4 μm pore size) and cultured (DMEM) for 10 to 25 days. Compounds are dissolved in appropriate solvent (like DMSO, 1-20 mM stock solutions). […] The transport solution (TL) is applied to the apical or basolateral donor side for measuring A-B or B-A permeability (3 filter replicates), respectively. Samples are collected at the start and end of experiment from the donor and at various time intervals for up to 2 hours also from the receiver side for concentration measurement by HPLC-MS/MS or scintillation counting. Sampled receiver volumes are replaced with fresh receiver solution.
Efflux ratio(ER)=permeabilityB−A/permeabilityA−B

Data set [5] deals with SIRPα signalling induced by Raji cells. The experiment in a line: Assay B: SIRPα signalling assay using Raji cells. The settings on record: Homo sapiens; compounds of the invention; Raji cells 48 h, Jurkat PathHunter SIRPαV1 reporter cells 5 h; read-out: Inhibition of SIRPα signalling induced by Raji cells: IC50. The format is cell-based. How it is done:
as §2, §3, §4

T2 sequence (Q16769 29-361): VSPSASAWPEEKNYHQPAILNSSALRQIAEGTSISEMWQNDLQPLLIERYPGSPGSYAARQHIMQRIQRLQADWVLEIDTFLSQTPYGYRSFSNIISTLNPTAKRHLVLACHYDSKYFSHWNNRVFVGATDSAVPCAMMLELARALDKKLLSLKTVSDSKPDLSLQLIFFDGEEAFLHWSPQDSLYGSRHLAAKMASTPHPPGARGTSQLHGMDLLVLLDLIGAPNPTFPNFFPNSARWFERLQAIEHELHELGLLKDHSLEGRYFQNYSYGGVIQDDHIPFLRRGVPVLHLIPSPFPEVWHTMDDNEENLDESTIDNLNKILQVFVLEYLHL
T1 sequence (Q9NXS2 whole entry): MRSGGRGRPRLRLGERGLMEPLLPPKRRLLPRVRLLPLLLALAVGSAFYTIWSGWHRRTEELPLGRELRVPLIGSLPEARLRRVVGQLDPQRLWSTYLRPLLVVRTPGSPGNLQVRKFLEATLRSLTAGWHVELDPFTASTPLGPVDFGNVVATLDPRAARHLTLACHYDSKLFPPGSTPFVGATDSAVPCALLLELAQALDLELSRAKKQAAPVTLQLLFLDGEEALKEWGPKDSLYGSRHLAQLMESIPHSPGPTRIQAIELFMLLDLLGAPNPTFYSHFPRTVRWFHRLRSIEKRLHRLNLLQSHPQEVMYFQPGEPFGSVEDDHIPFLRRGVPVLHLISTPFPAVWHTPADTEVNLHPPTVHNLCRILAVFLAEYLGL

Take `CC(C)n1nc2ncc(-c3nc(C4CC4)cc(C#N)c3N3CCC(F)(c4nncn4C)CC3)cc2c1F` [Example 30]: the IC50 was determined as 1 nM in data set [1], 20 nM in data set [2], 1 nM in data set [3] and 25 nM in data set [5]. Besides, the efflux ratio at 2 h in data set [4] turned out to be 9.4. This molecule also returned a Papp A→B at 2 h in data set [4] of 9.4 ×10⁻⁶ cm/s.

As to `Cn1cnnc1C1(F)CCN(c2c(C#N)cc(C(C)(F)F)nc2-c2cnc3nn(C(C)(C)C)c(F)c3c2)CC1` [Example 33], the IC50 was determined as 1 nM in data set [1], 26 nM in data set [2], 1 nM in data set [3] and 13 nM in data set [5]. The efflux ratio at 2 h in data set [4] turned out to be 2.2. The same molecule registered a Papp A→B at 2 h in data set [4] of 31 ×10⁻⁶ cm/s.

Consider `Cn1cnnc1C1(F)CCN(c2c(C#N)ccnc2-c2cnc(F)cc2Cl)CC1` [Example 22], for which the IC50 was found to be 5 nM in data set [1], 218 nM in data set [2], 15 nM in data set [3] and 435 nM in data set [5]. Besides, in data set [4], the efflux ratio at 2 h is 1.6. This molecule also displayed a Papp A→B at 2 h in data set [4] of 34 ×10⁻⁶ cm/s.

On to `Cn1cnnc1C1(F)CCN(c2c(C#N)ccnc2-n2cnc3nc(C(F)(F)F)ccc32)CC1` [Example 24], for which the IC50 worked out at 7 nM in data set [1], 349 nM in data set [2], 11 nM in data set [3] and 321 nM in data set [5]. In addition, in data set [4], the efflux ratio at 2 h stood at 14.1. Also, the Papp A→B at 2 h in data set [4] came to 1 ×10⁻⁶ cm/s.
